Experimental findings from PubChem BioAssay (NCI) are described below.

Structures are written as SMILES.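 Briefly, cells in 96-well plates were exposed to five compound concentrations for 48 h, and endpoints were estimated by linear interpolation. TGI marks complete inhibition of growth.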

Test in all cases: NCI tumour cell line growth inhibition, 48 h
For test [1], the system named is NCI-H226 lung.
Test [2] concerns HL-60(TB) leukemia.
Test [3] has as its system OVCAR-8 ovarian.
The test system of test [4] is OVCAR-5 ovarian.
For test [5], the system named is IGROV1 ovarian.
Test [6] deals with HOP-62 NSCLC.
For test [7], the system named is NCI/ADR-RES ovarian.
Test [8] deals with SK-MEL-2 melanoma.
Test [9] has as its system SF-539 CNS.
Test [10] has as its system MOLT-4 leukemia.
Test [11] relates to MALME-3M melanoma.
Test [12] relates to T-47D breast.
In test [13] the test system is LOX IMVI melanoma.
The subject of test [14] is SW-620 colon.
In test [15] the test system is K-562 leukemia.
Test [16] has as its system OVCAR-3 ovarian.
Test [17] relates to HOP-92 NSCLC.
The subject of test [18] is 786-0 renal.
Test [19] relates to BT-549 breast.
In test [20] the test system is SK-MEL-28 melanoma.

Take `Nc1ncc(C=O)c(NCC2(CO)CCC2)n1`: the TGI in test [1], in test [2], in [3], in test [4], in test [5] and in test [6] was more than 100 µM each time. Also, the TGI in [7] is more than 100 µM; in test [8] it was more than 100 µM; in [9] it was more than 100 µM; in test [10], more than 100 µM; in test [11] it was more than 100 µM; in test [12], 88.9 µM. The TGI in test [13] was more than 100 µM; in test [14] it was more than 100 µM; in [15], more than 100 µM; in [16], more than 100 µM; in test [17] it was 87.8 µM; in test [18] it was more than 100 µM.

For `COC(=O)Cc1c([C@H]2[C@H](CC(=O)OC)c3ccccc3N2S(=O)(=O)c2ccc(C)cc2)[nH]c2ccccc12`, the TGI in [1], in [2], in [3], in [4], in test [19] and in test [6] was more than 100 µM throughout. For the same compound, the TGI in test [7], in test [8], in test [9], in test [10], in test [11] and in [13] was more than 100 µM throughout. For the same compound, the TGI in test [14], in [15], in [16], in test [20], in [17] and in [18] was more than 100 µM each time.

For `S=C(N/N=C/c1ccccn1)N1CC2CCC(CC2)C1`, the TGI is 1.53 µM in test [1]; 0.143 µM in [2]; 0.252 µM in test [3]; 18 µM in [4]; 12.5 µM in [19]; 0.461 µM in [6]. In addition, the TGI in [8] came to 15.5 µM; in [9], 0.287 µM; in [11], 11.4 µM; in test [13], 12.4 µM; in [14], 14.5 µM; in test [16], 13.9 µM. Also, the TGI in test [20] was determined as 17.4 µM; in test [17], 13.9 µM; in test [18], 0.242 µM.

For the compound `CCOC(=O)/C(C(=S)NCc1ccccc1)=C(/N)N1CCCC1`, the TGI in [1], in test [2], in [3], in test [4], in test [5] and in test [6] was more than 100 µM throughout. Also, the TGI in test [7], in test [8], in [9], in test [10], in [11] and in [12] was more than 100 µM throughout. Moreover, the TGI in [13], in test [14], in [15], in test [16], in test [20] and in test [17] was more than 100 µM in each case. The TGI in test [18] is more than 100 µM.

With `Cc1cc(S(=O)(=O)Nc2nnc3ccccn23)c(S)cc1Cl`, the TGI in test [2], in test [3], in test [4], in test [5], in test [19] and in test [6] was more than 100 µM in each case. The TGI in test [7], in test [8], in [9], in test [10], in test [11] and in test [12] was more than 100 µM in each case. Also, the TGI in test [13], in test [14], in [15], in [16], in [20] and in test [18] was more than 100 µM throughout.

With `O=C1CCC2c3ccccc3NCN12` (configuration not stated), the TGI in test [1], in test [2], in test [3], in test [4], in test [5] and in test [6] was more than 100 µM throughout. In addition, the TGI in test [7], in test [8], in [9], in test [10], in test [11] and in test [12] was more than 100 µM each time. In addition, the TGI in test [13], in [14], in test [15], in [16], in [20] and in test [17] was more than 100 µM in each case. Further, the TGI in test [18] is more than 100 µM.

Turning to `COc1ccccc1/C=C1\S/C(=N/Nc2nc(C)c(C(C)=O)s2)NC1=O`, the TGI is 39.8 µM in test [1]; 63.2 µM in [2]; more than 100 µM in test [3]; more than 100 µM in test [4]; more than 100 µM in test [6]; more than 100 µM in [7]. Besides, the TGI in [8] was more than 100 µM; in test [9], more than 100 µM; in test [10], more than 100 µM; in test [12], 72.8 µM; in [13], more than 100 µM; in [14] it was more than 100 µM. In addition, the TGI in [15] was more than 100 µM; in [16] it was 56.1 µM; in test [20], more than 100 µM; in test [17], 48 µM; in test [18], more than 100 µM.

For the compound `CCC/C(Cl)=N/OC(NC(=O)OCC)(C(F)(F)F)C(F)(F)F`, the TGI is more than 100 µM in [1]; 48.2 µM in test [2]; more than 100 µM in test [3]; 33.2 µM in test [4]; 30.9 µM in test [5]; more than 100 µM in [6]. For the same compound, the TGI in test [7] is more than 100 µM; in [8] it was more than 100 µM; in [9], 30.3 µM; in test [10], 71.4 µM; in [11] it was 29.6 µM; in test [12], 66.9 µM. In addition, the TGI came out at 35.4 µM in test [13]; 37.5 µM in test [14]; 62.6 µM in test [15]; 29.6 µM in test [16]; 59.2 µM in [20]; 36.2 µM in test [17]. In test [18], this compound displayed a TGI of 31.2 µM.

As to `CCOC(=O)CSC1NC(C(=O)OC)CC1OC` (configuration not stated), the TGI in test [3], in test [4], in [5], in test [19], in test [6] and in test [7] was more than 100 µM each time. Further, the TGI in [8], in [10], in [11], in test [14], in [15] and in test [16] was more than 100 µM throughout. The TGI in test [20], in test [17] and in test [18] was more than 100 µM in each case.

Regarding `O=C(CSCC(=O)N/N=C\c1ccc(O)c(O)c1O)N/N=C\c1ccc(O)c(O)c1O`, the TGI in test [1] is 53.1 µM; in [2], 49.9 µM; in [3], more than 100 µM; in test [5] it was 42.2 µM; in [7] it was 3.16 µM; in test [8], 84.5 µM. In addition, the TGI came out at 37.9 µM in test [9]; 11.9 µM in [10]; 52.3 µM in test [11]; 76.1 µM in test [12]; 4.76 µM in [13]; 12.8 µM in test [14]. Also, the TGI in test [16] is 17.6 µM; in test [20] it was 44.2 µM; in test [17], more than 100 µM; in [18], 4.56 µM.

For `CN1C(=O)C(C(=O)Nc2ccccn2)C2C[C@@]1(C)Oc1ccccc12` (some centres not stated), the TGI in test [1], in test [2], in test [3], in test [4], in test [5] and in test [19] was more than 100 µM throughout. The TGI in test [6], in test [7], in [8], in [10], in test [11] and in test [13] was more than 100 µM in each case. In addition, the TGI in test [14], in test [15], in test [16], in test [20], in test [17] and in [18] was more than 100 µM each time.

With `O=C(CC(C(=O)c1ccsc1)c1ccsc1)c1ccsc1` (configuration not stated), the TGI in test [1], in [2], in [3], in test [5], in test [6] and in [7] was more than 100 µM in each case. For the same compound, the TGI in [8], in test [9], in test [10], in [11], in test [12] and in test [13] was more than 100 µM each time. For the same compound, the TGI in test [14], in test [15], in test [20] and in [18] was more than 100 µM in each case.

`COc1ccc(-c2csc(Cc3nc4c(Br)cc(Br)cc4c(=O)n3-c3ccc(OC)cc3)n2)cc1`: the TGI in test [1], in test [3], in test [4], in test [5], in test [19] and in test [6] was more than 100 µM throughout. For the same compound, the TGI in test [7], in test [8], in test [10], in test [13], in test [14] and in [16] was more than 100 µM in each case. Further, the TGI in test [20], in test [17] and in test [18] was more than 100 µM each time.

On to `C=CCOCn1cc(F)c(=O)[nH]c1=O`, for which the TGI in [1], in [2], in test [3], in [5], in test [19] and in test [6] was more than 100 µM in each case. The TGI in [9], in test [10], in [11], in [12], in [13] and in [14] was more than 100 µM throughout. The TGI in test [15], in [20] and in [18] was more than 100 µM each time.

On to `COc1ccc(N=Nc2ccc3oc(=O)c(C(=O)Nc4ccccc4C)cc3c2)cc1`, for which the TGI in [1], in [3], in [4], in test [5], in test [6] and in test [7] was more than 10 µM in each case. In addition, the TGI in [8], in test [9], in [10], in test [11], in [12] and in test [13] was more than 10 µM in each case. For the same compound, the TGI in [14], in test [16], in test [20], in [17] and in test [18] was more than 10 µM in each case.

For `N#CC(C#N)=c1c2ccccc2c(=C(C#N)C#N)c2ccccc12`, the TGI was 38.2 µM in [1]; 59.2 µM in test [2]; 42.7 µM in test [3]; 43.3 µM in test [4]; 30.2 µM in test [5]; 65 µM in test [19]. Further, the TGI in test [6] is 40.5 µM; in test [7], 72.4 µM; in [8], 32.9 µM; in test [10], more than 100 µM; in [13], 40.5 µM; in test [14], 82.8 µM. Also, the TGI in [15] is more than 100 µM; in test [16], 30 µM; in test [20], 48.3 µM; in [17], 88.6 µM; in test [18] it was 30.6 µM.
